Series [1] has as its system NCI-H-460. Briefly: CellTiter Glo assay, NCI-H-460. The series is classed as cell-based. The settings on record: Homo sapiens, NCI-H460; 72 hours, 10 point DRC, 100 μM top; read-out: Cytotoxicity IC50 NCI-H-460. The text has this:
(§1) The following human derived non-small cell lung cancer cell lines were used to test the efficiency of the compounds to cause cell death and assess the anti-cancer properties of said compounds: 1. A549 cells: adenocarcinomic human alveolar basal epithelial cells; these cells are used as models for the study of lung cancer and the development of drug therapies against it • 2. NCI-H-460 cells are also human lung cancer cells, and • 3. NCI-H-522 cells are also human lung cancer cells.
(§2) Cells were cultured and maintained in F12K+10% FBS+1× anti-anti media and RPMI+10% FBS+1× anti-anti media. Cells were trypsinised and expanded to ensure that cells are not over-confluent and are in log growth phase. On day 0, 500 cells/well were seeded in 30 μl media using cell culture treated white flat bottom 384 well plate, centrifuged at 40×g for 10 seconds and incubated overnight in […], 5% CO2 incubator. On day 1, 4× concentration of compounds were prepared in complete media, 10 μl was added to cells, centrifuged at 40×g for 10 seconds and incubated 72 hours in 37° C., 5% CO2 incubator. Compounds tested: 100 μM top, 3 fold dilution and 10 point DRC in triplicate. Final DMSO concentration was maintained at 0.5% for all compound. No compound/DMSO was used as a control. On day 4 (72 hours post treatment) plates were brought to room temperature for 10 min 10 μl of CellTiter Glo reagent was added to each well and placed the plates on an orbital shaker for 10 minutes at room temperature. Luminescence signal was read on the Envision plate reader using the ultra-sensitive luminescence protocol. Data was plotted and analyzed using the below formula: DMSO control treated cells RLU considered as 100% cell viability.
(§3) Table 7 provides the IC50 values for cell toxicity of most efficient derivatives of Formula A.
Background: In ATP-based viability assays light output follows the ATP content of the culture.

Series [2] has as its system NCI-H-522. The series is described as follows: CellTiter Glo assay, NCI-H-522. The series is classed as cell-based. The settings on record: Homo sapiens, NCI-H522; 72 hours, 10 point DRC, 100 μM top; read-out: Cytotoxicity IC50 NCI-H-522.
Source text: as §1, §2, §3

For series [3], the system named is NCI-H-460 cells. The series is described as follows: Cell cytotoxicity assay, NCI-H-460 cells. The series is classed as cell-based. The settings on record: Homo sapiens, NCI-H460, 72 hours, percent cytotoxicity against DMSO control; for cytotoxicity at 1 µM: 1 μM compound, read-out: Cell toxicity NCI-H-460 cells 1 μM; for cytotoxicity at 10 µM: 10 μM compound, read-out: Cell toxicity NCI-H-460 cells 10 μM.
Source text: as §1
(§4) 500 cells/well/30 μL were seeded in a 384 well cell culture plate. Incubated over night at 37° C., 5% CO2 in cell culture incubator. 10 μL of 4× compound was added to the plates, and incubated for 72 hours at 37° C., 5% CO2 in cell culture incubator. Assay DMSO control were included for 0% cytotoxicity control. Assay was terminated by addition of 10 μL of the reagent CTG 2.0 detection reagent #G9242. Plates were incubated for 20 minute incubation at room temperature with shaking Plate were read in Envision. Ultrasensitive luminescence and data was analyzed and percent cytotoxicity of compounds was determined against DMSO control.
(§5) All the compounds, A1-A116, were tested for cell toxicity using said non-small cell lung cancer cell lines using the above described method.

Series [4] deals with A549 cells. Briefly: Cell cytotoxicity assay, A549 cells. The settings on record: Homo sapiens, 72 hours, percent cytotoxicity against DMSO control; for cytotoxicity at 1 µM: 1 μM compound, read-out: Cell toxicity A549 cells 1 μM; for cytotoxicity at 10 µM: 10 μM compound, read-out: Cell toxicity A549 cells 10 μM. Format: cell-based.
Source text: as §1, §4, §5

Series [5] deals with Non-small cell lung cancer cell lines. The series is described as follows: Cell Titer Glo assay, overall statement. Format: cell-based, human. The settings on record: summary in words.
Source text: as §1, §2, §3

Series [6] has as its system A549. Briefly: CellTiter Glo assay, A549. The series is classed as cell-based. Conditions: Homo sapiens, 72 hours, 10 point DRC, 100 μM top, read-out: Cytotoxicity IC50 A549.
Source text: as §1, §2, §3

The subject of series [7] is NCI-H-522 cells. Briefly: Cell cytotoxicity assay, NCI-H-522 cells. Format: cell-based. Conditions: Homo sapiens, NCI-H522, 72 hours, percent cytotoxicity against DMSO control; for cytotoxicity at 1 µM: 1 μM compound, read-out: Cell toxicity NCI-H-522 cells 1 μM; for cytotoxicity at 10 µM: 10 μM compound, read-out: Cell toxicity NCI-H-522 cells 10 μM.
Source text: as §1, §4, §5

Series [8] relates to Non-small cell lung cancer cell lines. The series is described as follows: Cell toxicity assay, overall statement. The series is classed as cell-based. The settings on record: summary in words of Table 6.
Source text: as §1, §4, §5
These selected derivatives of Formula A were further tested to confirm their efficiency as anti-cancer compounds.

In general, IC50 refers to the concentration at which inhibition is half-maximal. `COc1cncc(Nc2nc(N3CCN(c4ccnc5cc(Cl)ccc45)CC3)cc(C(F)(F)F)n2)c1` [Compound A7, 4-(4-(7-chloroquinolin-4-yl)piperazin-1-yl)-N-(5-methoxypyridin-3-yl)-6-(trifluoromethyl)pyrimidin-2-amine]: the 50% inhibitory concentration (IC50) in series [1] was 3420 nM; in series [2] it was 2560 nM; in series [6], 4190 nM. In addition, the cytotoxicity at 1 µM in series [3] was -1%; in series [4], 53%; in series [7], 18%. In addition, the cytotoxicity at 10 µM in series [3] came out at 25%; in series [4] it was 65%; in series [7], 42%. In addition, the “efficiency in cell toxicity against Non-small cell lung cancer cell lines” value in series [5] is listed as “best efficiency”. In addition, in series [8], the “activity against Non-small cell lung cancer (cell toxicity)” value is listed as “active”.

Turning to `COc1cc(Nc2nc(C)cc(N3CCN(c4ccnc5ccccc45)CC3)n2)cc(OC)c1` [Compound A42, N-(3,5-dimethoxyphenyl)-4-methyl-6-(4-(quinolin-4-yl)piperazin-1-yl)pyrimidin-2-amine], the results for the IC50 in series [1], in series [2] and in series [6] were 2350 nM, 4210 nM and 1010 nM, respectively. Also, the values for the cytotoxicity at 1 µM in series [3], in series [4] and in series [7] were 4%, 68% and 20%, respectively. Further, the cytotoxicity at 10 µM in series [3] was found to be 67%; in series [4] it was 98%; in series [7], 80%. Besides, the “efficiency in cell toxicity against Non-small cell lung cancer cell lines” value in series [5] is on record as “best efficiency”. The “activity against Non-small cell lung cancer (cell toxicity)” value in series [8] is “active”.

As for `COc1cc(Nc2nc(N3CCN(c4ccnc5ccccc45)CC3)cc(C(F)(F)F)n2)cc(OC)c1` [Compound A43, N-(3,5-dimethoxyphenyl)-4-(4-(quinolin-4-yl)piperazin-1-yl)-6-(trifluoromethyl)pyrimidin-2-amine], the half-inhibitory concentration (IC50) in series [1] was found to be 943 nM; in series [2] it was 1230 nM; in series [6], 665 nM. Also, the cytotoxicity at 1 µM in series [3] amounted to 8%; in series [4], 88%; in series [7], 48%. Further, the cytotoxicity at 10 µM in series [3] is 65%; in series [4], 99%; in series [7], 73%. In series [5], the “efficiency in cell toxicity against Non-small cell lung cancer cell lines” value was “best efficiency”. Besides, the “activity against Non-small cell lung cancer (cell toxicity)” value in series [8] was “active”.

For `COc1cc(Nc2nc(C)cc(N3CCN(c4ccnc5cc(F)ccc45)CC3)n2)cc(OC)c1` [Compound A48, N-(3,5-dimethoxyphenyl)-4-(4-(7-fluoroquinolin-4-yl)piperazin-1-yl)-6-methylpyrimidin-2-amine], the IC50 in series [1] was 1840 nM; in series [2], 3240 nM; in series [6] it was 818 nM. Moreover, the cytotoxicity at 1 µM in series [3] came out at 0%; in series [4], 57%; in series [7] it was 16%. In addition, the cytotoxicity at 10 µM was found to be 66% in series [3], 98% in series [4] and 71% in series [7]. In addition, the “efficiency in cell toxicity against Non-small cell lung cancer cell lines” value in series [5] is “best efficiency”. Further, the “activity against Non-small cell lung cancer (cell toxicity)” value in series [8] was “active”.

As for `COc1cc(Nc2nc(N3CCN(c4ccnc5cc(F)ccc45)CC3)cc(C(F)(F)F)n2)cc(OC)c1` [Compound A49, N-(3,5-dimethoxyphenyl)-4-(4-(7-fluoroquinolin-4-yl)piperazin-1-yl)-6-(trifluoromethyl)pyrimidin-2-amine], the IC50 in series [1] is 842 nM; in series [2], 1840 nM; in series [6], 576 nM. Further, the cytotoxicity at 1 µM in series [3] was 3%; in series [4], 64%; in series [7], 45%. Moreover, the figures for the cytotoxicity at 10 µM in series [3], in series [4] and in series [7] were 59%, 99% and 77%, respectively. Besides, in series [5], the “efficiency in cell toxicity against Non-small cell lung cancer cell lines” value was “best efficiency”. Further, the “activity against Non-small cell lung cancer (cell toxicity)” value in series [8] is listed as “active”.

Source of the values: patent US20260070886A1, “QUINOLINE PIPERAZINE DERIVATIVES, PHARMACEUTICAL COMPOSITION AND USES THEREOF” (priority 2022, published 2026).
